These results are taken from PMC4776319 (Water research, 2015).

The target in data set [1] is T1, progesterone receptor (PR) (Homo sapiens, UniProt P06401).
T1 sequence (P06401 1-933): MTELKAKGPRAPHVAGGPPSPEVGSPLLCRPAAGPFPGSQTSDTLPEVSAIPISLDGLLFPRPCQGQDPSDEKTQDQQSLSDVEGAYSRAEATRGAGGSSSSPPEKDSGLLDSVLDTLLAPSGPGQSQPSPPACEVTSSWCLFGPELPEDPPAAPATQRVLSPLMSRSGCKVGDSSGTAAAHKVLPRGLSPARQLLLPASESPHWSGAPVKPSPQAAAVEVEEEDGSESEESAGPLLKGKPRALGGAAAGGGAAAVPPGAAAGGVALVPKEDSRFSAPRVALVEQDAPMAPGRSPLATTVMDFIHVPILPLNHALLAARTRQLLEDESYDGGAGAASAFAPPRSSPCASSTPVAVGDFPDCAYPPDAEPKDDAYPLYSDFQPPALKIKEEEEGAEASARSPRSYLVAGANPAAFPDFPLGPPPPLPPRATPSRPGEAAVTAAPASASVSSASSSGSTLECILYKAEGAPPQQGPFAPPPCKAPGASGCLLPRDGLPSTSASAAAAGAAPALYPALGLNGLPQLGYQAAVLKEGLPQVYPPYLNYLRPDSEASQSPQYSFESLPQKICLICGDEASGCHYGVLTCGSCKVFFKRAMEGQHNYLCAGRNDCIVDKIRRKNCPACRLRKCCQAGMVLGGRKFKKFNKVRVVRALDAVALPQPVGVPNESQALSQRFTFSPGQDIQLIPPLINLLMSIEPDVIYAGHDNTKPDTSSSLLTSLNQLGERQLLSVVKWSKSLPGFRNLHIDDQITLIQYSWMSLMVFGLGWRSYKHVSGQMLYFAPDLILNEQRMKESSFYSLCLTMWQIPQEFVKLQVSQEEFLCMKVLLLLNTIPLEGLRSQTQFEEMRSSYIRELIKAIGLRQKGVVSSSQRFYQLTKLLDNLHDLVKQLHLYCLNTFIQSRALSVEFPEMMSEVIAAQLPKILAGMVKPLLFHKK
Briefly: PR-CALUX progestagenic effects. In kind it is cell-based. The settings on record: reference chemical.

The test system of data set [2] is arylhydrocarbon receptor (AhR). Nature of the data set: AhR CAFLUX. In kind it is cell-based. The note with it: reference chemical.
Data set [3] concerns arylhydrocarbon receptor (AhR). The settings on record: read-out: EC50 value in literature; ref Macova et al., 2010; cited from earlier work.
The test system of data set [4] is Nrf2-MDA-MB cells. The settings on record: read-out: EC50 value in literature; ref Escher et al., 2012; cited from earlier work.
For data set [5], the system named is Nrf2-MDA-MB cells. Nature of the data set: cells. In kind it is cell-based, human.
Data set [6] has as its system Nrf2-Keap-ARE32 pathway. The settings on record: read-out: EC50 value in literature; ref Escher et al., 2012; cited from earlier work.
Data set [7] relates to Caco-2 cells. Nature of the data set: Caco-2 NRU cytotoxicity. In kind it is cell-based, human. The note with it: carrier solvent as positive control.
Data set [8] relates to algae photosynthesis. Nature of the data set: I-PAM algae photosynthesis inhibition. In kind it is cell-based.
The test system of data set [9] is algae growth. The note with it: read-out: EC50 value in literature; ref Escher et al., 2008a; cited from earlier work.
Data set [10] relates to algae growth. Briefly: Algae growth inhibition. In kind it is cell-based.
The test system of data set [11] is algae photosynthesis. The note with it: read-out: EC50 value in literature, cited from earlier work.
Data set [12] relates to neuroblastoma cells (SK-N-SH).
The test system of data set [13] is Jurkat cell line. Nature of the data set: Jurkat E6-1 osmotic stress assay. In kind it is cell-based. The settings on record: reference chemical.
Data set [14] concerns thyroid activity (cell proliferation). The settings on record: read-out: EC50 value in literature; ref Gutleb et al., 2005; cited from earlier work.
Data set [15] has the same test system. Nature of the data set: T-SCREEN cell proliferation assay, thyroid effects. In kind it is cell-based.
In data set [16] the target is T2, peroxisome proliferator-activated receptor (PPARγ) (Homo sapiens, UniProt P37231).
T2 sequence (P37231 238-505 limits assumed): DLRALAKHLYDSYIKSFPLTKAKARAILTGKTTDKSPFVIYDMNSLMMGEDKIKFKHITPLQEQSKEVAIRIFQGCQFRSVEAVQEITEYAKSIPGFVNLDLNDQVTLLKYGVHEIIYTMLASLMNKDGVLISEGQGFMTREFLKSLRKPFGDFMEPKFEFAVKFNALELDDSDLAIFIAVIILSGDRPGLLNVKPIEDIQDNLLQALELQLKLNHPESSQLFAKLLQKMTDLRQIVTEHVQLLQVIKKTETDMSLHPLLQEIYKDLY
Nature of the data set: PPARγ-GeneBLAzer-Anta. The note with it: antagonist mode. In kind it is cell-based.

Data set [17] addresses T2, peroxisome proliferator-activated receptor (PPARγ). The note with it: read-out: EC50 value in literature; antagonist mode; ref Invitrogen, 2007b; cited from earlier work.
Data set [18] concerns monocyte cell line (THP1). The note with it: read-out: EC50 value in literature; ref Leusch et al., 2014; cited from earlier work.
In data set [19] the target is T3, glucocorticoid receptor (GR) (Homo sapiens, UniProt P04150).
T3 sequence (P04150 1-777): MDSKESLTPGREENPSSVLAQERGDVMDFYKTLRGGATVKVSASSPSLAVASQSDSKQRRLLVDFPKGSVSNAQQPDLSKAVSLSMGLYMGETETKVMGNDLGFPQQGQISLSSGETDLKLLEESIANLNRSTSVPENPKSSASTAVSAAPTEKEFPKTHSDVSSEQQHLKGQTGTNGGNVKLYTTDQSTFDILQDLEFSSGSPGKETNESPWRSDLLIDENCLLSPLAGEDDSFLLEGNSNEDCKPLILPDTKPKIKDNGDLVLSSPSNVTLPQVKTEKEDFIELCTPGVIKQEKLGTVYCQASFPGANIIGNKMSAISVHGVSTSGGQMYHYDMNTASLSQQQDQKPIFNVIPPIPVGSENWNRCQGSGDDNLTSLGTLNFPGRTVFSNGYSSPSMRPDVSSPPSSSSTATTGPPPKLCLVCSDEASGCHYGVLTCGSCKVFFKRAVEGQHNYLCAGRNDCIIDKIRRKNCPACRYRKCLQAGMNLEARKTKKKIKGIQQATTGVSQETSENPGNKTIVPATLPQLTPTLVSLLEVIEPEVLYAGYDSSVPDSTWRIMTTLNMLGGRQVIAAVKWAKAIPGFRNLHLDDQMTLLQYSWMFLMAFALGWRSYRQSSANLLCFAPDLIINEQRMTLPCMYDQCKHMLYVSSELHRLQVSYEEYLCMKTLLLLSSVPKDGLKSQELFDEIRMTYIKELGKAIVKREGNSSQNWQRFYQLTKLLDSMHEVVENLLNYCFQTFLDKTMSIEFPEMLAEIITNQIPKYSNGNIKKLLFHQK
Nature of the data set: GR-Switchgear. In kind it is cell-based. The settings on record: reference chemical.

For data set [20], the system named is monocyte cell line (THP1). Nature of the data set: THP1-cp cytokine production.
Data set [21] has as its target T1, progesterone receptor (PR). Nature of the data set: PR-CALUX-Anta. In kind it is cell-based. The settings on record: antagonist mode, 20% suppression.

Where two headings read alike, the source gives them in different places.

Take `C#C[C@]1(O)CC[C@H]2[C@@H]3CCC4=CC(=O)CC[C@@H]4[C@H]3CC[C@@]21CC` [Levonorgestrel]: in data set [1], the EC10 was found to be 0.3 nM.

As usually defined, the EC50 is the concentration needed to bring the measured effect to its halfway point. As for `Clc1cc2c(cc1Cl)Oc1cc(Cl)c(Cl)cc1O2` [TCDD, 2,3,7,8-TCDD], in [2], the EC10 was determined as 0.00065 nM and the EC50 was determined as 0.008 nM. In addition, in data set [3], the EC50 was 0.0248 nM.

Take `CC(C)(C)c1cc(O)ccc1O` [tBHQ, tert-Butylhydroquinone]: the EC50 in [4] was 46000 nM; in [5] (Homo sapiens), 178000 nM; in data set [6], 1320 nM. In addition, the EC10 in data set [5] (human) was determined as 103000 nM.

Regarding `CO` [Methanol], the EC10 in [7] came to 0.4 M.

As to `CN(C)C(=O)Nc1ccc(Cl)c(Cl)c1` [Diuron], the EC50 in data set [8] was 6 nM; in data set [9] it was 135 nM; in [10] it was 25 nM; in data set [11] (ref Escher et al., 2008a), 12.8 nM; in data set [11] (ref Macova et al., 2010), 68.6 nM.

Consider `C[S+](C)[O-]` [DMSO, Dimethylsulfoxide], for which the EC10 in [12] turned out to be 0.11 M.

Regarding `CCCCCCCCCCCCCC(=O)O[C@@H]1[C@@H](C)[C@@]2(O)[C@@H](C=C(CO)C[C@]3(O)C(=O)C(C)=C[C@@H]23)[C@@H]2C(C)(C)[C@]12OC(C)=O` [PMA, Phorbol-12-myristate-13-acetate], in data set [13], the EC10 came to 3 nM and the EC50 was found to be 20 nM.

On to `N[C@@H](Cc1cc(I)c(Oc2ccc(O)c(I)c2)c(I)c1)C(=O)O` [Triiodothyronine], for which the EC50 in data set [14] was 0.191 nM; in data set [15], 0.74 nM. Also, the EC10 in data set [15] (reference chemical) turned out to be 0.28 nM.

`O=C(Nc1ccccc1)c1cc([N+](=O)[O-])ccc1Cl` [GW9662] displayed an ECSR0.2 in [16] (20% suppression) of 3.0 nM. For the same compound, the IC50 in data set [16] (read-out: ECSR0.5, 50% suppression) is 8.4 nM. Further, the EC50 in [17] was 3.5 nM.

On to `C[C@@H]1C[C@H]2[C@@H]3CCC4=CC(=O)C=C[C@]4(C)[C@@]3(F)[C@@H](O)C[C@]2(C)[C@@]1(O)C(=O)CO` [Dexamethasone], for which the EC50 in [18] is 2.7 nM; in [20] (Homo sapiens, THP-1), 45 nM. Also, the EC10 entry is “EC10 (0.5 nM); EC50 (2.6 nM)” in [19] and 2.1 nM in data set [20] (reference chemical).

For the compound `CC#C[C@]1(O)CC[C@H]2[C@@H]3CCC4=CC(=O)CCC4=C3[C@@H](c3ccc(N(C)C)cc3)C[C@@]21C` [Mifepristone], the ECSR0.2 in data set [21] was 20 pM.
